Experimental data published in patent US8790654B2, “Glycosylceramide adjuvant for saccharide antigens” (Novartis AG, priority 2004, dated 2014).

Tested on: CRM protein carrier
Assay: CRM-specific Ig titre in mice immunised with MenC-CRM conjugate with or without α-GalCer
Type: in vivo
Conditions: MenC-CRM conjugate and α-GalCer, compared with conjugate alone; 2wp2 and 2wp3
Method: C) Immunisation schedule for mice with different polysaccharides, plain, conjugated or admixed with protein carriers, with and without α-GalCer. Ten groups of wild-type C57BL/6 mice were primed on day 0 with: 1) PBS, 2) 0.1 μg with α-GalCer, 3) 10 μg MenC polysaccharide, 4) 20 μg CRM protein carrier, 5) 30 μg of a MenC-CRM conjugate, 6) 10 μg MenC polysaccharide admixed with CRM protein carrier, or the compositions in 3)-6) and α-GalCer (groups 7-10). Mice were boosted two and four weeks after they were primed with the same composition with which they were primed. Mice were bled 2, 4 and 6 weeks after initial priming (2wp1, 2wp2 and 2wp3) and the levels of antibodies against both the MenC polysaccharide and the CRM carrier were measured.
FIG. 5: α-GalCer enhances the specific antibody response against both the MenC polysaccharide and the CRM protein carrier in a MenC-CRM conjugate. Wild-type mice were primed with 10 μg MenC polysaccharide, 20 μg CRM protein carrier, 10 μg MenC polysaccharide admixed with CRM protein carrier (MenC+CRM), or 30 μg of a MenC-CRM conjugate, or the same compositions with α-GalCer. Mice were boosted two and four weeks after they were primed with the same composition with which they were primed.

CCCCCCCCCCCCCCCCCCCCCCCCCC(=O)N[C@@H](CO[C@H]1O[C@H](CO)[C@H](O)[C@H](O)[C@H]1O)[C@H](O)[C@H](O)CCCCCCCCCCCCCC [α-GalCer, α-galactosylceramide]
CRM-specific Ig titre: enhanced
